Data: US20050203063A1, “Proteasome pathway inhibitors and related methods” (priority 2003, published 2005)

Tests used:
26S proteasomes = tested on: T1, 26S proteasomes; test: Binding of UbSic1 to immobilized 26S proteasomes; design: species or system S. cerevisiae; details: 5 μM C92
T1 construct: IC50, deubiquitination of UbSic1; other: titration, epoxomicin-treated proteasomes; other: 5 μM C92
Method: FIG. 2. […] (A) Degradation of UbSic1. Purified 26S proteasomes were preincubated in the presence or absence of test compounds. UbSic1 was then added, and degradation assayed as described (6). Py mock refers to the pyridine solvent in which C23 was dissolved which was marginally inhibitory, unlike the 50% DMSO vehicle used for other test compounds. (B) Deubiquitination of UbSic1. […] UbSic1 was then added, and deubiquitination was assayed as described (6). (C) Titration curve with varying concentrations of C92 to determine half-maximal inhibition of deubiquitination. (D) C92 inhibits binding of UbSic1 to 26S proteasomes. Purified 26S proteasomes immobilized on anti-Flag beads were incubated with UbSic1 in the presence or absence of C92 as described (6). Following binding, beads were washed and analyzed by immunoblotting with anti-Sic1 polyclonal serum. (E) Binding of UbSic1 to the polyUb binding proteins Rpn10 and Rad23 is inhibited by C92. […] Following binding, beads were washed and analyzed by immunoblotting. […]
26S proteasomes were immunoprecipitated with anti-Flag resin from tagged and untagged control strains and incubated with 1 mM phenanthroline, 2.5 uM Ub-aldehyde, and 100 μM MG132 at 4° C. for 45 min. […] Washed beads were resuspended in 2×SDS sample buffer and aliquots analyzed by immunoblotting with anti-Sic1.

Gst-Rad23 [1] = biological target: T2, Gst-Rad23 (Saccharomyces cerevisiae, UniProt P32628); test: Native gel mobility shift of receptor protein; format: binding
T2 construct: made in house
T2 sequence (P32628 1-398): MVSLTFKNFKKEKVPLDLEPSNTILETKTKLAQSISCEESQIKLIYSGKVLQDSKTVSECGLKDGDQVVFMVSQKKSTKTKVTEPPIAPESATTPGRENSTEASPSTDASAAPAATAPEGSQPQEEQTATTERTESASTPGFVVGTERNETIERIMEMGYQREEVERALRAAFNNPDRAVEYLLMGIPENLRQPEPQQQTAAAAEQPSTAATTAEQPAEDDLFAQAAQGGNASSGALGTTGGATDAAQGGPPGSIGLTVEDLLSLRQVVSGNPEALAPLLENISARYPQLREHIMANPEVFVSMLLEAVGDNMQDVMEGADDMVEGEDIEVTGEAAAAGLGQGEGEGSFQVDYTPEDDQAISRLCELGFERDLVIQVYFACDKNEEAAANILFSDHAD
Method: (§1) FIG. 2. […] (A) Degradation of UbSic1. Purified 26S proteasomes were preincubated in the presence or absence of test compounds. UbSic1 was then added, and degradation assayed as described (6). Py mock refers to the pyridine solvent in which C23 was dissolved which was marginally inhibitory, unlike the 50% DMSO vehicle used for other test compounds. (B) Deubiquitination of UbSic1. […] UbSic1 was then added, and deubiquitination was assayed as described (6). (C) Titration curve with varying concentrations of C92 to determine half-maximal inhibition of deubiquitination. (D) C92 inhibits binding of UbSic1 to 26S proteasomes. Purified 26S proteasomes immobilized on anti-Flag beads were incubated with UbSic1 in the presence or absence of C92 as described (6). Following binding, beads were washed and analyzed by immunoblotting with anti-Sic1 polyclonal serum. (E) Binding of UbSic1 to the polyUb binding proteins Rpn10 and Rad23 is inhibited by C92. Recombinant Gst-Rpn10 and Gst-Rad23 (1 μg each) were immobilized on glutathione sepharose beads and then incubated with UbSic1 in the presence or absence of C92. Following binding, beads were washed and analyzed by immunoblotting. (F) C92 interacts with multiUb chains. Equivalent amounts (5 μg) of purified Gst, Gst-fusion protein or multiUb chains were incubated with C92 or C1 before being loaded on a 5% native polyacryamide gel. […]

Gst-Rpn10 = biological target: T3, Gst-Rpn10 (Saccharomyces cerevisiae, UniProt P38886); test: Native gel mobility shift of receptor protein; format: binding
T3 construct: made in house
T3 sequence (P38886 1-268): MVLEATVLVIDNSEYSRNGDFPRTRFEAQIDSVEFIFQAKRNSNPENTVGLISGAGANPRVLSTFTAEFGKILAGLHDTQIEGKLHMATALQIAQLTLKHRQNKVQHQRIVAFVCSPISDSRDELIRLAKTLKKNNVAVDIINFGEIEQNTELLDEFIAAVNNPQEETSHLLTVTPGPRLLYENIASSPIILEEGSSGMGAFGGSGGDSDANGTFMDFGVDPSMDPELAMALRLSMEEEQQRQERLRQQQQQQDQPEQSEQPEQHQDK
Method: as §1

Gst-Rad23 [2] = biological target: T2, Gst-Rad23; test: Binding of UbSic1 to Gst-Rad23 on glutathione sepharose beads
Method: FIG. 2. […] (A) Degradation of UbSic1. Purified 26S proteasomes were preincubated in the presence or absence of test compounds. UbSic1 was then added, and degradation assayed as described (6). Py mock refers to the pyridine solvent in which C23 was dissolved which was marginally inhibitory, unlike the 50% DMSO vehicle used for other test compounds. (B) Deubiquitination of UbSic1. […] UbSic1 was then added, and deubiquitination was assayed as described (6). (C) Titration curve with varying concentrations of C92 to determine half-maximal inhibition of deubiquitination. (D) C92 inhibits binding of UbSic1 to 26S proteasomes. Purified 26S proteasomes immobilized on anti-Flag beads were incubated with UbSic1 in the presence or absence of C92 as described (6). Following binding, beads were washed and analyzed by immunoblotting with anti-Sic1 polyclonal serum. (E) Binding of UbSic1 to the polyUb binding proteins Rpn10 and Rad23 is inhibited by C92. Recombinant Gst-Rpn10 and Gst-Rad23 (1 μg each) were immobilized on glutathione sepharose beads and then incubated with UbSic1 in the presence or absence of C92. Following binding, beads were washed and analyzed by immunoblotting. (F) C92 interacts with multiUb chains. […]
Recombinant Gst-Rpn10 and Gst-Rad23 were immobilized on glutathione sepharose beads. […] Aliquots were analyzed by immunoblotting.

SMILES: O=C(Nc1ccc(/C=C/c2ccc(NC(=O)c3cc(S(=O)(=O)O)c4cccnc4c3O)cc2S(=O)(=O)O)c(S(=O)(=O)O)c1)c1cc(S(=O)(=O)O)c2cccnc2c1O [Compound 92]
- inhibition of binding of UbSic1 to 26S proteasomes (26S proteasomes): strongly inhibited binding
- native gel mobility of Gst-Rad23 (Gst-Rad23 [1]): not Gst-Rpn10 or Gst-Rad23, was altered
- native gel mobility of Gst-Rpn10 (Gst-Rpn10): not Gst-Rpn10 or Gst-Rad23, was altered
- inhibition of binding of UbSic1 to Rad23 (Gst-Rad23 [2]): abolished binding
